Results published in paper doi:10.1101/2024.08.19.608619, “Discovery of potent SARS-CoV-2 nsp3 macrodomain inhibitors uncovers lack of translation to cellular antiviral response” (bioRxiv, 2024).

Key:
Assay in all cases: biochemical
Set-up in all cases: In vitro kinase panel profiling, per cent remaining kinase activity at 10 uM
EphB4(h) = molecular target: T1, EphB4(h) (Homo sapiens, UniProt P54760); details: batch_name=ASAP-0014722-002; atp_concentration=10; read-out: % of control remaining
T1 sequence (P54760 1-987): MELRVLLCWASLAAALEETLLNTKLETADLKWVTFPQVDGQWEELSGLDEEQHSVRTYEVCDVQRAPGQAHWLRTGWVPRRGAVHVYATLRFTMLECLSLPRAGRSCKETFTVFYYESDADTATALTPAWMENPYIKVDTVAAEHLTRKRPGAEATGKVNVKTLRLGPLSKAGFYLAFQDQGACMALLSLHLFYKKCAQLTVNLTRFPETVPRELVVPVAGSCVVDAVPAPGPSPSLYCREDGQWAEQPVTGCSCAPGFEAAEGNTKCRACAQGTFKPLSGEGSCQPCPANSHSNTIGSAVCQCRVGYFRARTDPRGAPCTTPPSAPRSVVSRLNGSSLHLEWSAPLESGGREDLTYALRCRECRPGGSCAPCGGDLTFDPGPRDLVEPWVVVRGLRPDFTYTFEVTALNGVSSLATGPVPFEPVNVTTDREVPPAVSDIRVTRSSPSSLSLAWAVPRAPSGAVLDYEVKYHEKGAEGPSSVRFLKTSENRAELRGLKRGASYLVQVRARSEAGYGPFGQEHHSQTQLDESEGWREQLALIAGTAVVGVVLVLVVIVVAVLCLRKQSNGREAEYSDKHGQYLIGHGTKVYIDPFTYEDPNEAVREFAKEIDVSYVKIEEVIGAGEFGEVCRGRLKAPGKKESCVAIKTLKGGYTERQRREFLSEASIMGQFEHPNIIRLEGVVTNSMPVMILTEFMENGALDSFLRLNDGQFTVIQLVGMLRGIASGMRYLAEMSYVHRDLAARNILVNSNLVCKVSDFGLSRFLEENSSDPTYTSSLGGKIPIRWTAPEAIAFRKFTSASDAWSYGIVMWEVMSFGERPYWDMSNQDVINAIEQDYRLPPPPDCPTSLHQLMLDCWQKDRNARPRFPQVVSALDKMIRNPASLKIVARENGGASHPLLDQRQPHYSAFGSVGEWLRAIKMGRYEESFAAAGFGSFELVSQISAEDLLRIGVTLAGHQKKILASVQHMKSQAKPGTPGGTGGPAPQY
Text: (§1) We derisk potential for off-target activity by profiling the compound in a CEREP panel, a standard secondary pharmacology assessment, as well as a kinase panel to derisk a potential hinge-binding motif in our leads, and a PARP panel to derisk activity against human […]. Reassuringly, the compounds are selective, with the only off-targets being moderate human CHRM2 and KOR receptors activity associated with ASAP-0011198.

CHK1(h) = molecular target: T2, CHK1(h) (Homo sapiens, UniProt O14757); details: batch_name=ASAP-0014722-002; atp_concentration=90; read-out: % of control remaining
T2 construct: gene CHEK1
T2 sequence (O14757 1-476): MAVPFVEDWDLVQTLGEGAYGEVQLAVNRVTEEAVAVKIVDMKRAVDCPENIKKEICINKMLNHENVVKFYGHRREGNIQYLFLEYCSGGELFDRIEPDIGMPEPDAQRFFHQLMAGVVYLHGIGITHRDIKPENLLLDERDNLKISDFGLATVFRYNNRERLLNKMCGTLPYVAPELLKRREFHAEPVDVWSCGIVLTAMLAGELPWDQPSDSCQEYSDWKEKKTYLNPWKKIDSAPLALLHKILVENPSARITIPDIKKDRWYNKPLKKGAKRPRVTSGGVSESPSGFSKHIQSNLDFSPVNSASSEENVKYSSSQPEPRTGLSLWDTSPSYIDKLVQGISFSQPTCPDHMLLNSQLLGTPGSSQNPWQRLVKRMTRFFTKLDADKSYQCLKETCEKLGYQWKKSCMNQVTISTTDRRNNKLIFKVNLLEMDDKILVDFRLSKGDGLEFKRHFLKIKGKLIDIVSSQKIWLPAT
Text: as §1

ALK(h) = ALK(h) (Homo sapiens, UniProt Q9UM73); details: batch_name=ASAP-0014722-002; atp_concentration=200; read-out: % of control remaining
Sequence of ALK(h) (Q9UM73 whole entry): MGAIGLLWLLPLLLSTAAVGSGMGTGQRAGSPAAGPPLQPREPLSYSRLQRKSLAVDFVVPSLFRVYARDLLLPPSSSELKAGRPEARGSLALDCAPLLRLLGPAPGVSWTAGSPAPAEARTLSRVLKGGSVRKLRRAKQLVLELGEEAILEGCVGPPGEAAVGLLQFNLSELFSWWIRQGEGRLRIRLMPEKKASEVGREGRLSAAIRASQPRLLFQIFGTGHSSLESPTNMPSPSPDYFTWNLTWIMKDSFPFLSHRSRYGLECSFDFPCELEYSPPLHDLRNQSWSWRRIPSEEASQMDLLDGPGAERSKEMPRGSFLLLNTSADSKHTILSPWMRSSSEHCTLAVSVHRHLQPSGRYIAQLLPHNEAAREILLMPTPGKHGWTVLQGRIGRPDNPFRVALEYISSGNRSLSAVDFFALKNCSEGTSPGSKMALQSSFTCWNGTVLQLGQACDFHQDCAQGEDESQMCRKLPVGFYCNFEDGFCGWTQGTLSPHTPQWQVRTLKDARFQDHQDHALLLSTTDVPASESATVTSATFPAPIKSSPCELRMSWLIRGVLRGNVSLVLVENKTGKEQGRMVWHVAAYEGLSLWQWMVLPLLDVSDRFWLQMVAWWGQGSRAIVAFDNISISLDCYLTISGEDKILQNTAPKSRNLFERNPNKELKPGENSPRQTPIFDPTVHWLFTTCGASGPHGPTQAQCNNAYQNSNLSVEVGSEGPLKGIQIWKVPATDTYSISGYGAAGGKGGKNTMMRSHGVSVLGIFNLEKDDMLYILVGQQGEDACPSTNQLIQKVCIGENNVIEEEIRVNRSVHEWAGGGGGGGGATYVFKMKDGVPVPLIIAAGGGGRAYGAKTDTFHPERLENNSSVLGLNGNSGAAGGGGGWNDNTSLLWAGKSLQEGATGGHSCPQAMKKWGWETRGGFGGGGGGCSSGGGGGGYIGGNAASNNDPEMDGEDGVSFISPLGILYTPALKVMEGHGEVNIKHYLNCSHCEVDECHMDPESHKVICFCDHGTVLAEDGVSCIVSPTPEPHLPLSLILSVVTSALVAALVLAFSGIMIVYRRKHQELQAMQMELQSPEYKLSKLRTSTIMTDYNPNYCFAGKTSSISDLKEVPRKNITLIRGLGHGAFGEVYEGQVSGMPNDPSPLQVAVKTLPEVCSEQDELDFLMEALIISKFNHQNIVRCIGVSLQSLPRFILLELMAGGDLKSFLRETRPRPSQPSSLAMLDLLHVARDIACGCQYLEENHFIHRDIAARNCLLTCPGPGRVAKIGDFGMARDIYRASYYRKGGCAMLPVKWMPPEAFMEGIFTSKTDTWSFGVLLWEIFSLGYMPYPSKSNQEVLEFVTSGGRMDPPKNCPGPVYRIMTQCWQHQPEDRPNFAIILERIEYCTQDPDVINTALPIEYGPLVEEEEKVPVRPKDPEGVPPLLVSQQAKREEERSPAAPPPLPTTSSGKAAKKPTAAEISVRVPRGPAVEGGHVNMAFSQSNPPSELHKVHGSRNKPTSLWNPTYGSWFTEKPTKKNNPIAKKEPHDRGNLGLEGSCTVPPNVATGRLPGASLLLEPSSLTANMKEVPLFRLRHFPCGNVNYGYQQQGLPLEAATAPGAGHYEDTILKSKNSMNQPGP
Text: as §1

SRPK1(h) = SRPK1(h) (Homo sapiens, UniProt Q96SB4); details: batch_name=ASAP-0014722-002; atp_concentration=10; read-out: % of control remaining
Sequence of SRPK1(h) (Q96SB4 whole entry): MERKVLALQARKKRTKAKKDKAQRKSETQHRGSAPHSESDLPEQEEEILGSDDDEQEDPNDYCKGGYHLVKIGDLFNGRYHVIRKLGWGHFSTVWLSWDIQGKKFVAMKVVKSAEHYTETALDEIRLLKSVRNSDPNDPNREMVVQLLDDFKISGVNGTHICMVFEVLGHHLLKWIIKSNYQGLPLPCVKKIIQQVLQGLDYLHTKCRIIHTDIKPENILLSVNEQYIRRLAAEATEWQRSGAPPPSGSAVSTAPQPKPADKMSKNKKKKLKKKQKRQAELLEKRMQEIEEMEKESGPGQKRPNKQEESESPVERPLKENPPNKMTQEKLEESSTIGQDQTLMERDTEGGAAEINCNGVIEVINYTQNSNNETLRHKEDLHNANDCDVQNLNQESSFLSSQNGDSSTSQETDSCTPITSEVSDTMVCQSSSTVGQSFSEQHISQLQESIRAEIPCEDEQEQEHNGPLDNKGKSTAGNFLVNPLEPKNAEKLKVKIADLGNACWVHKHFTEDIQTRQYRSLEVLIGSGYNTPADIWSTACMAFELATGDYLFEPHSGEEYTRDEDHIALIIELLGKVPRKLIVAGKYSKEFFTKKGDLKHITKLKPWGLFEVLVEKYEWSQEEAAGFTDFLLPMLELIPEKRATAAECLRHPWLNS
Text: as §1

NEK2(h) = molecular target: T3, NEK2(h) (Homo sapiens, UniProt P51955); details: batch_name=ASAP-0014722-002; atp_concentration=120; read-out: % of control remaining
T3 sequence (P51955 1-445): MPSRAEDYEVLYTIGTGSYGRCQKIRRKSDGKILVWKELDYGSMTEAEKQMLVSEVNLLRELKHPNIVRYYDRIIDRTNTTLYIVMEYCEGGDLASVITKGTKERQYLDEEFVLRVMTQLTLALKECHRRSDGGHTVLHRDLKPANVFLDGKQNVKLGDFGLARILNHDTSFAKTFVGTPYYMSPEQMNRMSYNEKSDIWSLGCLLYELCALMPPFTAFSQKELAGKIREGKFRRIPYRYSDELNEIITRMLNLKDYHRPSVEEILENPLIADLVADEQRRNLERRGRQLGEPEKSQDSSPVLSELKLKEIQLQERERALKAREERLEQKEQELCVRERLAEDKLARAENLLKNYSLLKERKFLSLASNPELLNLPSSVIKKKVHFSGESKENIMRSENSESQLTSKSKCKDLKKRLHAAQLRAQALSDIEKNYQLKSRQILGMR
Text: as §1

`C[C@H](C(=O)O)[C@@H](NC(=O)c1ncnc2[nH]ccc12)c1ccc(Br)cc1` [ASAP-0014722] was tested, and the remaining activity at 10 µM (EphB4(h)) was 105%, the remaining activity at 10 µM (CHK1(h)) was 99% and the remaining activity at 10 µM (ALK(h)) was 99%. For the same compound, the remaining activity at 10 µM (SRPK1(h)) was 97% and the remaining activity at 10 µM (NEK2(h)) was 101%.
